# Tested on: Acinetobacter baumannii
# Assay: Activity of Acinetobacter baumannii AC-54/97 metallo-beta-lactamase IMP-2 expressed in Escherichia coli DH5alpha
SMILES,Km,kcat
CC1(C)S[C@@H]2[C@H](NC(=O)[C@H](N)c3ccc(O)cc3)C(=O)N2[C@H]1C(=O)O,110 µM,23 s⁻¹
C[C@@H](O)[C@H]1C(=O)N2C(C(=O)O)=C(SCCNC=N)C[C@H]12,24 µM,22 s⁻¹
CO[C@@]1(NC(=O)Cc2cccs2)C(=O)N2C(C(=O)O)=C(COC(N)=O)CS[C@@H]21,7 µM,7 s⁻¹
C[C@@H](O)[C@H]1C(=O)N2C(C(=O)O)=C(S[C@@H]3CN[C@H](C(=O)N(C)C)C3)[C@H](C)[C@H]12,0.3 µM,1 s⁻¹
CC1(C)S[C@@H]2[C@H](NC(=O)[C@H](C(=O)O)c3ccsc3)C(=O)N2[C@H]1C(=O)O,700 µM,252 s⁻¹
CC(C)(O/N=C(\C(=O)N[C@@H]1C(=O)N2C(C(=O)[O-])=C(C[n+]3ccccc3)CS[C@H]12)c1csc(N)n1)C(=O)O,111 µM,21 s⁻¹

# Tested on: Acinetobacter baumannii
# Assay: Ratio of Kcat to Km of Acinetobacter baumannii AC-54/97 metallo-beta-lactamase IMP-2 expressed in Escherichia coli DH5alpha
row,SMILES,kcat/Km
1,CC1(C)S[C@@H]2[C@H](NC(=O)[C@H](N)c3ccc(O)cc3)C(=O)N2[C@H]1C(=O)O,0.21
2,C[C@@H](O)[C@H]1C(=O)N2C(C(=O)O)=C(SCCNC=N)C[C@H]12,0.92
3,CO[C@@]1(NC(=O)Cc2cccs2)C(=O)N2C(C(=O)O)=C(COC(N)=O)CS[C@@H]21,1
4,C[C@@H](O)[C@H]1C(=O)N2C(C(=O)O)=C(S[C@@H]3CN[C@H](C(=O)N(C)C)C3)[C@H](C)[C@H]12,3.3
5,CC1(C)S[C@@H]2[C@H](NC(=O)[C@H](C(=O)O)c3ccsc3)C(=O)N2[C@H]1C(=O)O,0.36
6,CC(C)(O/N=C(\C(=O)N[C@@H]1C(=O)N2C(C(=O)[O-])=C(C[n+]3ccccc3)CS[C@H]12)c1csc(N)n1)C(=O)O,0.19

# — ChEMBL document CHEMBL1137670, “First occurrence of an IMP metallo-beta-lactamase in Aeromonas caviae: IMP-19 in an isolate from France” (2007)
